Experiment [1] is described as follows: DRUGMATRIX: beta-Lactamase enzyme inhibition (substrate: Nitrocefin). Further details: species or system Bacillus cereus. As to conditions: Not Active = under 50% inhibition at 10 µM.
The next experiment deals with Substance-P receptor (Homo sapiens, UniProt P25103). Format: cell membranes, CHO, Membrane. As to conditions: cho.
The target in experiment [2] is T1, Muscarinic acetylcholine receptor M2 (Homo sapiens, UniProt P08172). Note: in other assays of this panel Not Active means under 50% inhibition at 10 µM.
T1 sequence (P08172 whole entry): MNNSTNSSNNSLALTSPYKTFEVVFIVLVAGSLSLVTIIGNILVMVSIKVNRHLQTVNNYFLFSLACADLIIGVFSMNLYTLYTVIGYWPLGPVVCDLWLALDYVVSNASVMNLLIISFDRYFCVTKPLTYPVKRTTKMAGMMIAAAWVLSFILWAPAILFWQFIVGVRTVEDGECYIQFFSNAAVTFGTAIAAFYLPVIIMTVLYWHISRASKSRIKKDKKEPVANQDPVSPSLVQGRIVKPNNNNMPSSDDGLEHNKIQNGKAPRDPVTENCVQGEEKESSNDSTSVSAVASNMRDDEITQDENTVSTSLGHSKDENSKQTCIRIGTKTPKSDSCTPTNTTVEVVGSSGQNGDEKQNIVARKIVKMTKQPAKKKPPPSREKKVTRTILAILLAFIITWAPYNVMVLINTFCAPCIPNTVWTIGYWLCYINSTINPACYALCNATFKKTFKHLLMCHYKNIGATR
Format: cell membranes, CHO-K1, Membrane. The following applies: cho-k1.

Experiment [3] has as its target T2, Muscarinic acetylcholine receptor M4 (Homo sapiens, UniProt P08173). Note: in other assays of this panel Not Active means under 50% inhibition at 10 µM.
T2 sequence (P08173 whole entry): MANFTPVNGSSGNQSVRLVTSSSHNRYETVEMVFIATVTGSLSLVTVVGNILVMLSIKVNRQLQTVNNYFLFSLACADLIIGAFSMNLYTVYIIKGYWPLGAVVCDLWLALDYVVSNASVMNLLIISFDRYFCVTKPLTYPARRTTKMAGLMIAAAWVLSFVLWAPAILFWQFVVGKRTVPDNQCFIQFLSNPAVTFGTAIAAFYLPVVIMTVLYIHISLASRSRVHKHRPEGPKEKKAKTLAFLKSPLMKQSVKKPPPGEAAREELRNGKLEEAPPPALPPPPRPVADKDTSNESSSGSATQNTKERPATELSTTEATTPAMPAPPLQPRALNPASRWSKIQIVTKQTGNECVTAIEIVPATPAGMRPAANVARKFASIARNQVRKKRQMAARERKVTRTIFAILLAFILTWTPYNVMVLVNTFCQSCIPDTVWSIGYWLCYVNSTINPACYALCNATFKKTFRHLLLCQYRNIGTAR
Type of experiment: cell membranes, CHO-K1, Membrane. The following applies: for Ki: read-out: Ki.

The target in experiment [4] is 5-hydroxytryptamine receptor 1B (Rattus norvegicus, UniProt P28564). Format: cell membranes, Wistar, Cerebral cortex, Membrane. Note: in other assays of this panel Not Active means under 50% inhibition at 10 µM.
5-hydroxytryptamine receptor 1B, sequence (P28564 whole entry): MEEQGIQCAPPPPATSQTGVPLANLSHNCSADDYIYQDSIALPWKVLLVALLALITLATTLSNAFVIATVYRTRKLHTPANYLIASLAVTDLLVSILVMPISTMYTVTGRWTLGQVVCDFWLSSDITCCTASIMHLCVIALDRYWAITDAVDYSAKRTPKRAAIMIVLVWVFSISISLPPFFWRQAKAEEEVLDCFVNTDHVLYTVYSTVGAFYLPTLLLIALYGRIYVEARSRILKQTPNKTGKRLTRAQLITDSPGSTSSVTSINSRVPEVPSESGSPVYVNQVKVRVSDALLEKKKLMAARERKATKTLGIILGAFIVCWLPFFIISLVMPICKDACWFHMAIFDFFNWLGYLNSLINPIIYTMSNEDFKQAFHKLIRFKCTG
For another experiment, the target named is T3, Adenosine receptor A3 (Homo sapiens, UniProt P0DMS8).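 Note: radioligand binding assay with AB-MECA serving as the labeled ligand; in other assays of this panel Not Active means under 50% inhibition at 10 µM.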
T3 sequence (P0DMS8 whole entry): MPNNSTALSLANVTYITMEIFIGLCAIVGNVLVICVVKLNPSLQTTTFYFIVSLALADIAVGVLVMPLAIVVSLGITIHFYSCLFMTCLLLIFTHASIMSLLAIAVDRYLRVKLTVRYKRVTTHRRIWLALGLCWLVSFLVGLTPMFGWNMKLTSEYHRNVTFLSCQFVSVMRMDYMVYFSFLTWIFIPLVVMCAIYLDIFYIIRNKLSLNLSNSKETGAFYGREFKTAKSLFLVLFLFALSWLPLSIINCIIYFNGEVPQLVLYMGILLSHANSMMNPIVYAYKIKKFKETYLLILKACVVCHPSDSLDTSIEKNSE
Format: cell membranes, CHO-K1, Membrane. The following applies: for Ki: read-out: Ki.

The results in this text go back to ChEMBL document CHEMBL1909046, “DrugMatrix in vitro pharmacology data”.

The term IC50 denotes the midpoint of a concentration-inhibition curve. By Ki is commonly meant the equilibrium dissociation constant of an inhibitor or competing ligand from its target.

Substance-P receptor, sequence (P25103 whole entry): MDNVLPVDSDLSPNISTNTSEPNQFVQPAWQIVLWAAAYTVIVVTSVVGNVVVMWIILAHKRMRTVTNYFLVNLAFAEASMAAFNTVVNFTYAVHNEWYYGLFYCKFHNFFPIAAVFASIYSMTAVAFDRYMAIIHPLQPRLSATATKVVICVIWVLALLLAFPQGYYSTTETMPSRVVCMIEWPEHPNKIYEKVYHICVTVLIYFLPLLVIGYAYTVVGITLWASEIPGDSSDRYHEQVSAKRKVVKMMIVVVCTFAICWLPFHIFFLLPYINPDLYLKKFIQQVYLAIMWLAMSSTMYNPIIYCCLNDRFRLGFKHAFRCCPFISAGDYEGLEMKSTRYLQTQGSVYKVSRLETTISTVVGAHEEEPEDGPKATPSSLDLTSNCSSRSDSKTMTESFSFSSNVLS

Turning to `CCOc1nc2cccc(C(=O)O)c2n1Cc1ccc(-c2ccccc2-c2nnn[nH]2)cc1`, the IC50 entry in experiment [1] is “Not Active”; on Substance-P receptor, “Not Active”; in experiment [2], “Not Active”; in experiment [3] (cho-k1), “Not Active”; in experiment [4], “Not Active”; at Adenosine receptor A3 (read-out: IC50), 1.22 µM. For the same compound, the Ki entry in experiment [1] was “Not Active”; on Adenosine receptor A3, 0.69 µM.
As for `O=C(O)CCCc1cccs1`, the IC50 entry (in experiment [1]; on Substance-P receptor; in experiment [2]; in experiment [3] (cho-k1); in experiment [4]; on Adenosine receptor A3 (cho-k1)) was “Not Active” each time. Besides, the Ki entry in experiment [1] was “Not Active”.
As to `COc1ccccc1N`, the IC50 entry (in experiment [1]; on Substance-P receptor; in experiment [2]; in experiment [3] (cho-k1); in experiment [4]; on Adenosine receptor A3 (cho-k1)) was “Not Active” each time. Moreover, the Ki result in experiment [1] is recorded as “Not Active”.
Turning to `O=C(c1ccccc1F)N1CCC(Cc2ccccc2)CC1`, the IC50 result (in experiment [1]; on Substance-P receptor; in experiment [2]; in experiment [3] (cho-k1); in experiment [4]; at Adenosine receptor A3 (cho-k1)) was “Not Active” in each case. Besides, the Ki result in experiment [1] is on record as “Not Active”.
`Cc1c(O)cccc1C(=O)N[C@@H](CSc1ccccc1)[C@H](O)CN1C[C@H]2CCCC[C@H]2C[C@H]1C(=O)NC(C)(C)C`: the 50% inhibitory concentration (IC50) entry was “Not Active” in experiment [1]; “Not Active” on Substance-P receptor; “Not Active” in experiment [2]; “Not Active” in experiment [3] (cho-k1); “Not Active” in experiment [4]; 14.8 µM on Adenosine receptor A3 (read-out: IC50). Further, the Ki entry in experiment [1] was “Not Active”; at Adenosine receptor A3, 8.36 µM.
On to `CC(O)COC[C@H]1O[C@@H]2O[C@H]3[C@H](O)[C@@H](O)[C@@H](O[C@H]4[C@H](O)[C@@H](O)[C@@H](O[C@H]5[C@H](O)[C@@H](O)[C@@H](O[C@H]6[C@H](O)[C@@H](O)[C@@H](O[C@H]7[C@H](O)[C@@H](O)[C@@H](O[C@H]8[C@H](O)[C@@H](O)[C@@H](O[C@H]1[C@H](O)[C@H]2O)O[C@@H]8COCC(C)O)O[C@@H]7COCC(C)O)O[C@@H]6COCC(C)O)O[C@@H]5COCC(C)O)O[C@@H]4COCC(C)O)O[C@@H]3COCC(C)O` (stereo partly drawn) [2-HYDROXYPROPYL-BETA-CYCLODEXTRIN], for which the half-maximal inhibitory concentration (IC50) result (in experiment [1]; against Substance-P receptor; in experiment [2]; in experiment [3] (cho-k1); in experiment [4]; against Adenosine receptor A3 (cho-k1)) was “Not Active” in each case. Besides, the Ki entry in experiment [1] is “Not Active”.
Regarding `NC(=O)c1cccc(N)c1` [3-AMINOBENZAMIDE], the IC50 result (in experiment [1]; against Substance-P receptor; in experiment [2]; in experiment [3] (cho-k1); in experiment [4]; at Adenosine receptor A3 (cho-k1)) was “Not Active” each time. Moreover, in experiment [1], the Ki entry is listed as “Not Active”.
Turning to `C[C@H]1O[C@H](O[C@H]2[C@H](O)[C@@H](O)[C@@H](O[C@H]3[C@H](O)[C@@H](O)C(O)O[C@@H]3CO)O[C@@H]2CO)[C@H](O)[C@@H](O)[C@@H]1N[C@H]1C=C(CO)[C@@H](O)[C@H](O)[C@H]1O` (stereo partly drawn) [ACARBOSE], the IC50 result (in experiment [1]; against Substance-P receptor; in experiment [2]; in experiment [3] (cho-k1); in experiment [4]; at Adenosine receptor A3 (cho-k1)) was “Not Active” in each case. Besides, the Ki entry in experiment [1] is “Not Active”.
Consider `CC[C@H]1[C@@H]2C[C@H]3[C@@H]4N(C)c5ccccc5[C@]45C[C@@H]([C@@H]2[C@H]5O)N3[C@@H]1O` [AJMALINE], for which the IC50 result (in experiment [1]; on Substance-P receptor; in experiment [2]; in experiment [3] (cho-k1); in experiment [4]; against Adenosine receptor A3 (cho-k1)) was “Not Active” in each case. Also, the inhibition constant (Ki) result in experiment [1] was “Not Active”.
As to `NC12CC3CC(CC(C3)C1)C2` [AMANTADINE], the IC50 result (in experiment [1]; against Substance-P receptor; in experiment [2]; in experiment [3] (cho-k1); in experiment [4]; on Adenosine receptor A3 (cho-k1)) was “Not Active” in each case. For the same compound, the Ki entry in experiment [1] is “Not Active”.
On to `NCCCNCCSP(=O)(O)O` [AMIFOSTINE], for which the IC50 result (in experiment [1]; on Substance-P receptor; in experiment [2]; in experiment [3] (cho-k1); in experiment [4]; on Adenosine receptor A3 (cho-k1)) was “Not Active” in each case. In addition, the Ki result in experiment [1] is reported as “Not Active”.
Take `CN(C)CCC=C1c2ccccc2CCc2ccccc21` [AMITRIPTYLINE]: the IC50 entry is “Not Active” in experiment [1]; “Not Active” against Substance-P receptor; 0.0053 µM in experiment [3] (read-out: IC50); 3.73 µM in experiment [4] (read-out: IC50); “Not Active” against Adenosine receptor A3 (cho-k1). Moreover, the figures for the inhibition constant Ki entry in experiment [1], in experiment [3] and in experiment [4] (read-out: Ki) were “Not Active”, 0.000739 µM and 1.69 µM, respectively.
As for `CC(=O)Oc1ccccc1C(=O)O` [ASPIRIN], the IC50 entry (in experiment [1]; against Substance-P receptor; in experiment [2]; in experiment [3] (cho-k1); in experiment [4]; on Adenosine receptor A3 (cho-k1)) was “Not Active” in each case. Further, the inhibitory constant (Ki) result in experiment [1] is “Not Active”.
On to `CC(C)c1c(C(=O)Nc2ccccc2)c(-c2ccccc2)c(-c2ccc(F)cc2)n1CC[C@@H](O)C[C@@H](O)CC(=O)O` [ATORVASTATIN], for which the IC50 result (in experiment [1]; against Substance-P receptor; in experiment [2]; in experiment [3] (cho-k1); in experiment [4]; on Adenosine receptor A3 (cho-k1)) was “Not Active” throughout. Besides, in experiment [1], the Ki result is given as “Not Active”.
For the compound `CC(=O)OC[C@H]1O[C@@H](n2ncc(=O)[nH]c2=O)[C@H](OC(C)=O)[C@@H]1OC(C)=O` [AZARIBINE], the IC50 entry (in experiment [1]; against Substance-P receptor; in experiment [2]; in experiment [3] (cho-k1); in experiment [4]; at Adenosine receptor A3 (cho-k1)) was “Not Active” in each case. In experiment [1], the Ki result is on record as “Not Active”.
As for `C[C@H]1[C@H](NC(=O)/C(=N\OC(C)(C)C(=O)O)c2csc(N)n2)C(=O)N1S(=O)(=O)O` [AZTREONAM], the IC50 entry (in experiment [1]; against Substance-P receptor; in experiment [2]; in experiment [3] (cho-k1); in experiment [4]; on Adenosine receptor A3 (cho-k1)) was “Not Active” each time. For the same compound, the Ki entry in experiment [1] is recorded as “Not Active”.
For the compound `O=C(O)CCNC(=O)c1ccc(/N=N/c2ccc(O)c(C(=O)O)c2)cc1` [BALSALAZIDE], the IC50 entry (in experiment [1]; on Substance-P receptor; in experiment [2]; in experiment [3] (cho-k1); in experiment [4]; on Adenosine receptor A3 (cho-k1)) was “Not Active” in each case. In experiment [1], the Ki result was “Not Active”.
On to `COc1cc(OC)c(C(=O)CCCN2CCCC2)c(OC)c1` [BUFLOMEDIL], for which the IC50 result (in experiment [1]; at Substance-P receptor; in experiment [2]; in experiment [3] (cho-k1); in experiment [4]; on Adenosine receptor A3 (cho-k1)) was “Not Active” in each case. In addition, the Ki entry in experiment [1] is reported as “Not Active”.
As to `Cn1c(=O)c2c(ncn2C)n(C)c1=O` [CAFFEINE], the IC50 entry (in experiment [1]; on Substance-P receptor; in experiment [2]; in experiment [3] (cho-k1); in experiment [4]; against Adenosine receptor A3 (cho-k1)) was “Not Active” throughout. The Ki entry in experiment [1] is “Not Active”.
For the compound `N=C(N)c1ccc(OCCCCCOc2ccc(C(=N)N)cc2)cc1` [PENTAMIDINE], the IC50 entry in experiment [1] is “Not Active”; against Substance-P receptor, “Not Active”; in experiment [3] (read-out: IC50), 1.58 µM; in experiment [4], “Not Active”; on Adenosine receptor A3 (cho-k1) it was “Not Active”. Moreover, the inhibition constant Ki entry in experiment [1] was “Not Active”; in experiment [3] it was 0.22 µM.
